Data: US12655106B2 (Eikonizo Therapeutics, Inc., priority 2021, dated 2026)
pIC50: −log10 of the molar value.

Columns and labels:
Full length Human HDAC6 = biological target: T1, Full length Human HDAC6 (Homo sapiens, UniProt Q9UBN7); test: Caliper endpoint assay for HDAC enzymatic activity (HDAC6); type: biochemical; details: for pIC50: in vitro enzymatic, Caliper endpoint assay, 30 min pre-incubation, 1 μM substrate peptide; for Selectivity (6 v 8): ratio of HDAC8 IC50/HDAC6 IC50
T1 construct: Full length Human HDAC6; FLAG (C); host or cells: baculovirus expression system
T1 sequence (Q9UBN7 1-1215): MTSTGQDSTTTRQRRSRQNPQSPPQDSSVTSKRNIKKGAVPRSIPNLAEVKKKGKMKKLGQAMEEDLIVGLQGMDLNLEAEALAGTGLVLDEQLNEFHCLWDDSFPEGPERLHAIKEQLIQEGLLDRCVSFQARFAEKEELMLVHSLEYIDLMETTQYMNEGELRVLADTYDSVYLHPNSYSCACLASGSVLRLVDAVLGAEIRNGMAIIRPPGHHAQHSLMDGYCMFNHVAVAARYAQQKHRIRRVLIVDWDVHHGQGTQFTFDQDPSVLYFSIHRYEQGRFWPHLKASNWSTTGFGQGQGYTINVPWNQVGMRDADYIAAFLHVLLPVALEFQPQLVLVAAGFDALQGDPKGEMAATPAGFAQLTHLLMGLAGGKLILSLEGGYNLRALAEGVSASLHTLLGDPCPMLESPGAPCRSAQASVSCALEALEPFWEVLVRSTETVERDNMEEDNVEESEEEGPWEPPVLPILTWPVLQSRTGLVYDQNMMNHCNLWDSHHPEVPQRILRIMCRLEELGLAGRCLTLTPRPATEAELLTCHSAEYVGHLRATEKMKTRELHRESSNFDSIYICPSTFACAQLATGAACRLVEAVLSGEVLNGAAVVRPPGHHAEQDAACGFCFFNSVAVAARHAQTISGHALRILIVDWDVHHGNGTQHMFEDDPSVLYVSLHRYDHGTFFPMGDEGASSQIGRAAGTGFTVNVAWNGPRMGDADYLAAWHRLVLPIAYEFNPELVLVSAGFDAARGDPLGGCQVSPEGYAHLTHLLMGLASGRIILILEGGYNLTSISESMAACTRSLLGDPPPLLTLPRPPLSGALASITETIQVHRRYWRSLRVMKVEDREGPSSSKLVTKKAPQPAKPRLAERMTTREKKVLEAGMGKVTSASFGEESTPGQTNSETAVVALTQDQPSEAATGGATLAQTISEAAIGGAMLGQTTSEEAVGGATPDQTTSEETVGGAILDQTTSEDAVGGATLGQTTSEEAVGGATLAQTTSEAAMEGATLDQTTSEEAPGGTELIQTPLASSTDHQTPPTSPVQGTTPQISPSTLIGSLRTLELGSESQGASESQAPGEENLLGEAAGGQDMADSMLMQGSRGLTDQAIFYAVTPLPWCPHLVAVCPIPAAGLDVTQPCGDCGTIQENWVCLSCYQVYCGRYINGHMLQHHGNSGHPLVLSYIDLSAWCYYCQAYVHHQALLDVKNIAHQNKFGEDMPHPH

Full length Human HDAC8 = biological target: T2, Full length Human HDAC8 (Homo sapiens, UniProt Q9BY41); test: Caliper endpoint assay for HDAC enzymatic activity (HDAC8); type: biochemical; details: in vitro enzymatic, 30 min pre-incubation, 1 μM substrate peptide
T2 construct: Full length Human HDAC8; HIS (N); host or cells: baculovirus expression system
T2 sequence (Q9BY41 1-377): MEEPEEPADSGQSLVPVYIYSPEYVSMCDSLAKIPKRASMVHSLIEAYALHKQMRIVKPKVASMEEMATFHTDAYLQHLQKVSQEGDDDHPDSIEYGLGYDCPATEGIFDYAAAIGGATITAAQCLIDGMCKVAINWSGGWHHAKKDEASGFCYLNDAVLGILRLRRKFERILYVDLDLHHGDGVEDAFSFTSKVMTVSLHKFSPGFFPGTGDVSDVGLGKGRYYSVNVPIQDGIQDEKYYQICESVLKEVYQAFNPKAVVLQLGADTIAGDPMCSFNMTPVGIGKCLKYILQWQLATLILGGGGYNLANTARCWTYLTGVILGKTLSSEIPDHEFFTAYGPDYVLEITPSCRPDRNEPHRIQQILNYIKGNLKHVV

Compound | pIC50 (Full length Human HDAC6) | Selectivity (6 v 8) (Full length Human HDAC6) | pIC50 (Full length Human HDAC8)
O=C(NO)c1cc(F)c2c(c1)CN1CCC[C@@H]1C2 [Compound 124] | 7.00 to 9.00 | IV (IV: >100-1000) | 5.00 to 6.00
CC1(C)C[C@@H]2Cc3cc(C(=O)NO)cc(F)c3CN2C1 [Compound 126] | 6.00 to 7.00 | III (III: >10-100) | 5.00 to 6.00
O=C(NO)c1cc(F)c2c(c1)CCN([C@@H]1CCC3(CCCCC3)C1)C2 (single isomer, unassigned) [Compound 110] | 7.00 to 9.00 | – | 4.00 to 5.00
O=C(NO)c1cc(F)c2c(c1)CN1CCCC[C@H]1C2 [Compound 146] | 6.00 to 7.00 | III (III: >10-100) | 4.00 to 5.00
CC[C@@H]1Cc2c(F)cc(C(=O)NO)cc2CN1C1CC2(CCOCC2)C1 (single isomer, unassigned) [Compound 590] | 6.00 to 7.00 | III (III: >10-100) | 4.00 to 5.00
CC[C@@H]1Cc2c(F)cc(C(=O)NO)cc2CN1C1CCCCC1 (single isomer, unassigned) [Compound 582] | 6.00 to 7.00 | III (III: >10-100) | 4.00 to 5.00
CC[C@H]1Cc2c(F)cc(C(=O)NO)cc2CN1CC12CC(NC(C)=O)(C1)C2 (single isomer, unassigned) [Compound 525] | 7.00 to 9.00 | III (III: >10-100) | 5.00 to 6.00
CC[C@@H]1Cc2c(F)cc(C(=O)NO)cc2CN1C1CC(C)(C)C1 (single isomer, unassigned) [Compound 592] | 6.00 to 7.00 | IV (IV: >100-1000) | 4.00 to 5.00
CN1[C@@H]2CC[C@H]1CC(CN1CCc3cc(C(=O)NO)cc(F)c3C1)C2 (single isomer, unassigned) [Compound 483] | 7.00 to 9.00 | IV (IV: >100-1000) | 5.00 to 6.00
CC[C@H]1Cc2c(F)cc(C(=O)NO)cc2CN1CC1CCCCC1 (single isomer, unassigned) [Compound 518] | 7.00 to 9.00 | IV (IV: >100-1000) | 5.00 to 6.00
O=C(NO)c1cc(F)c2c(c1)CCN(C1CCC13COC3)C2 (centres unmarked) [Compound 300, 8-fluoro-2-(2-oxaspiro[3.3]heptan-7-yl)-3,4-dihydro-1H-isoquinoline-6-carbohydroxamic acid] | 7.00 to 9.00 | IV (IV: >100-1000) | 5.00 to 6.00
C[C@H]1CC[C@H]2c3c(F)cc(C(=O)NO)cc3CCN12 (single isomer, unassigned) [Compound 157] | 7.00 to 9.00 | – | 5.00 to 6.00
O=C(NO)c1cc(F)c2c(c1)CCN([C@@H]1CCNC3(CCC3)C1)C2 (single isomer, unassigned) [Compound 436] | 7.00 to 9.00 | IV (IV: >100-1000) | 5.00 to 6.00
CN1CCC2(CC1)CC(CN1CCc3cc(C(=O)NO)cc(F)c3C1)C2 [Compound 469, 8-fluoro-2-[(7-methyl-7-azaspiro[3.5]nonan-2-yl)methyl]-3,4-dihydro-1H-isoquinoline-6-carbohydroxamic acid] | 7.00 to 9.00 | IV (IV: >100-1000) | 5.00 to 6.00
O=C(NO)c1cc(F)c2c(c1)CCN(C[C@@]13CN[C@@H](CO1)C3)C2 [Compound 472, 8-fluoro-2-[[(1R,4R)-2-oxa-5-azabicyclo[2.2.1]heptan-1-yl]methyl]-3,4-dihydro-1H-isoquinoline-6-carbohydroxamic acid] | 7.00 to 9.00 | IV (IV: >100-1000) | 5.00 to 6.00
O=C(NO)c1cc(F)c2c(c1)CCN([C@@H]1CCC3(CCC3)C1)C2 (single isomer, unassigned) [Compound 384] | 7.00 to 9.00 | V (V: >1000) | 4.00 to 5.00
O=C(NO)c1cc(F)c2c(c1)C[C@H]1CC3(CCCCC3)CN1C2 (single isomer, unassigned) [Compound 135] | 6.00 to 7.00 | – | 5.00 to 6.00
CN1CCC2(CCC2N2CCc3cc(C(=O)NO)cc(F)c3C2)CC1 (centres unmarked) [Compound 358, 8-fluoro-2-(7-methyl-7-azaspiro[3.5]nonan-3-yl)-3,4-dihydro-1H-isoquinoline-6-carbohydroxamic acid] | 7.00 to 9.00 | IV (IV: >100-1000) | 5.00 to 6.00
O=C(NO)c1cc(F)c2c(c1)CCN(C1CCC3(CC1)C[S+]([O-])C3)C2 (centres unmarked) [Compound 426, 8-fluoro-2-(2-oxo-2MA-thiaspiro[3.5]nonan-7-yl)-3,4-dihydro-1H-isoquinoline-6-carbohydroxamic acid] | 7.00 to 9.00 | V (V: >1000) | < 4.00
O=C(NO)c1cc(F)c2c(c1)CCN([C@H]1C[C@@]3(CCCNC3)C1)C2 (single isomer, unassigned) [Compound 342, 8-fluoro-N-hydroxy-2-((2s,4r)-6-azaspiro[3.5]nonan-2-yl)-1,2,3,4-tetrahydroisoquinoline-6-carboxamide] | 7.00 to 9.00 | IV (IV: >100-1000) | 5.00 to 6.00
O=C(NO)c1cc(F)c2c(c1)CCN(C1CCC3(C1)CN(C1CC1)C3)C2 (centres unmarked) [Compound 390, 2-(2-cyclopropyl-2-azaspiro[3.4]octan-6-yl)-8-fluoro-3,4-dihydro-1H-isoquinoline-6-carbohydroxamic acid] | 6.00 to 7.00 | III (III: >10-100) | 4.00 to 5.00
CN1C[C@]2(CN3CCc4cc(C(=O)NO)cc(F)c4C3)C[C@H]1CO2 [Compound 475, 8-fluoro-2-[[(1R,4S)-5-methyl-2-oxa-5-azabicyclo[2.2.1]heptan-1-yl]methyl]-3,4-dihydro-1H-isoquinoline-6-carbohydroxamic acid] | 7.00 to 9.00 | IV (IV: >100-1000) | 4.00 to 5.00
CC1(C)CC(N2CCc3cc(C(=O)NO)cc(F)c3C2)C1 [Compound 201, 2-(3,3-dimethylcyclobutyl)-8-fluoro-3,4-dihydro-1H-isoquinoline-6-carbohydroxamic acid] | 7.00 to 9.00 | V (V: >1000) | 4.00 to 5.00
CC1(C)C[C@H]2Cc3c(F)cc(C(=O)NO)cc3CN2C1 [Compound 128] | 6.00 to 7.00 | III (III: >10-100) | 5.00 to 6.00
C[C@H]1C[C@H]2c3c(F)cc(C(=O)NO)cc3CCN2C1 (single isomer, unassigned) [Compound 154] | 6.00 to 7.00 | – | 5.00 to 6.00
